Literature values as cited in patent US9661851B1, “Synergistic herbicidal composition and use thereof” (ROTAM AGROCHEM INTERNATIONAL COMPANY LIMITED, priority 2015, dated 2017).

Details: hydrolysis in water, storage with moisture, in formulations; stated with reference to U.S. Ser. No. 14/957,768

Row | stability | SMILES
1 | improved stability | COC(=O)c1ccc(CNS(C)(=O)=O)c(S(=O)(=O)NC(=O)Nc2nc(OC)cc(OC)n2)c1 [crystalline modification I of mesosulfuron-methyl] [methyl 2-[(4,6-dimethoxypyrimidin-2-ylcarbamoyl)sulfamoyl]-α-(methanesulfonamido)-p-toluate]
2 | highly unstable | COC(=O)c1ccc(CNS(C)(=O)=O)c(S(=O)(=O)NC(=O)Nc2nc(OC)cc(OC)n2)c1 [mesosulfuron-methyl in the amorphous state] [methyl 2-[(4,6-dimethoxypyrimidin-2-ylcarbamoyl)sulfamoyl]-α-(methanesulfonamido)-p-toluate]
